According to patent publication US12233161B1, “Lipids and lipid nanoparticle formulations” (LONGUIDE BIOPHARMA CORPORATION, priority 2024, dated 2025):

System: mice
Assay: In vivo delivery of FLuc-mRNA lipid nanoparticles in mice, in vivo imaging (IVIS)
Details: for IVIS / % of organ targeting: Fluc-mRNA LNP, formulation, molar ratio and N/P as in the table; for organ targeting specificity (spleen or lung), in words: Table 3, Fluc-mRNA, various formulations
Method: After the preparation was completed, the preparation was injected intramuscularly (mice rectus femoris muscle of the thigh), intravenously (mice tail vein), or intraperitoneal injection or subcutaneous injection (subcutaneous on the back), with approximately 75 μL per mouse, for a total of 3 mice. After a certain time of injection, in vivo imaging (PerkinElmer, IVIS Lumina III) was performed. 10-15 minutes before imaging, 200 μL of 15 mg/mL D-Luciferin working solution was injected intraperitoneally, and the imaging analysis was performed using an in vivo imager.

Compound | IVIS (route IM, organ not given) | IVIS (route IV, organ not given) | % of organ targeting (route IM, organ: liver) | IVIS (route IM, organ: liver) | % of organ targeting (route IM, organ: lung) | IVIS (route IM, organ: lung) | IVIS (route IM, organ: muscle) | % of organ targeting (route IM, organ: spleen) | IVIS (route IM, organ: spleen) | IVIS (route IV, organ: body) | % of organ targeting (route IV, organ: liver) | IVIS (route IV, organ: liver) | % of organ targeting (route IV, organ: lung) | IVIS (route IV, organ: lung) | % of organ targeting (route IV, organ: spleen) | IVIS (route IV, organ: spleen) | organ targeting specificity (spleen or lung), in words
CCCCCCCCC(CCCCCC)C(=O)NCCOC(=O)C(O)CN(CCCN(CC(O)C(=O)OCCNC(=O)C(CCCCCC)CCCCCCCC)CC(O)C(=O)OCCNC(=O)C(CCCCCC)CCCCCCCC)CCCN(CC(O)C(=O)OCCNC(=O)C(CCCCCC)CCCCCCCC)CC(O)C(=O)OCCNC(=O)C(CCCCCC)CCCCCCCC (stereo not drawn) [Compound L0375] | 1.41E+05 | 3.72E+05 | – | – | – | – | – | – | – | – | – | – | – | – | – | – | –
CCCCCCCCC(CCCCCC)C(=O)OCCCCNC(=O)C(O)CN(CCCN(C)CCCN(CC(O)C(=O)NCCCCOC(=O)C(CCCCCC)CCCCCCCC)CC(O)C(=O)NCCCCOC(=O)C(CCCCCC)CCCCCCCC)CC(O)C(=O)NCCCCOC(=O)C(CCCCCC)CCCCCCCC (stereo not drawn) [Compound L0376] | – | – | 30.06% | 2.21E+05 | 5.80% | 4.27E+04 | 2.06E+07 | 64.14% | 4.72E+05 | 5.58E+07 | 14.62% | 1.64E+07 | 20.78% | 2.32E+07 | 64.60% | 7.23E+07 | strong targeting specificity to deliver to spleen
CCCCCCCCC(CCCCCC)C(=O)OCCCCNC(=O)C(O)CCN(CCCN(C)CCN(CC(O)C(=O)NCCCCOC(=O)C(CCCCCC)CCCCCCCC)CC(O)C(=O)NCCCCOC(=O)C(CCCCCC)CCCCCCCC)C(O)C(=O)NCCCCOC(=O)C(CCCCCC)CCCCCCCC (stereo not drawn) [Compound L0377] | – | – | 35.08% | 1.59E+05 | 6.58% | 2.98E+04 | 3.71E+07 | 58.34% | 2.64E+05 | 1.81E+08 | 38.23% | 6.08E+07 | 4.20% | 6.67E+06 | 57.57% | 9.15E+07 | strong targeting specificity to deliver to spleen
CCCCCCCCC(CCCCCC)C(=O)OCCCCNC(=O)C(O)CN(CCCN(CC(O)C(=O)NCCCCOC(=O)C(CCCCCC)CCCCCCCC)CC(O)C(=O)NCCCCOC(=O)C(CCCCCC)CCCCCCCC)CCCN(CC(O)C(=O)NCCCCOC(=O)C(CCCCCC)CCCCCCCC)CC(O)C(=O)NCCCCOC(=O)C(CCCCCC)CCCCCCCC (stereo not drawn) [Compound L0378] | – | – | 37.15% | 1.82E+05 | 12.65% | 6.19E+04 | 3.09E+07 | 50.19% | 2.45E+05 | 2.77E+08 | 45.43% | 5.93E+07 | 0.60% | 7.82E+05 | 53.97% | 7.04E+07 | strong targeting specificity to deliver to spleen
CCCCCCC(CCCCCC)C(=O)NCCNC(=O)C(O)CN(CCCN(C)CCCN(CC(O)C(=O)NCCNC(=O)C(CCCCCC)CCCCCC)CC(O)C(=O)NCCNC(=O)C(CCCCCC)CCCCCC)CC(O)C(=O)NCCNC(=O)C(CCCCCC)CCCCCC (stereo not drawn) [Compound L0379] | – | 1.63E+09 | 35.55% | 1.37E+06 | 3.16% | 1.22E+05 | 2.68E+08 | 61.28% | 2.37E+06 | – | – | – | – | – | – | – | strong targeting specificity to deliver to spleen
CCCCCCC(CCCCCC)C(=O)NCCNC(=O)C(O)CN(CCN(C)CCN(CC(O)C(=O)NCCNC(=O)C(CCCCCC)CCCCCC)CC(O)C(=O)NCCNC(=O)C(CCCCCC)CCCCCC)CC(O)C(=O)NCCNC(=O)C(CCCCCC)CCCCCC (stereo not drawn) [Compound L0380] | – | – | 61.06% | 3.14E+07 | 1.54% | 7.90E+05 | 4.58E+08 | 37.40% | 1.92E+07 | 7.98E+09 | 96.36% | 2.14E+09 | 0.40% | 8.80E+06 | 3.24% | 7.18E+07 | –
CCCCCCC(CCCCCC)C(=O)NCCNC(=O)C(O)CN(CCCN(CC(O)C(=O)NCCNC(=O)C(CCCCCC)CCCCCC)CC(O)C(=O)NCCNC(=O)C(CCCCCC)CCCCCC)CCCN(CC(O)C(=O)NCCNC(=O)C(CCCCCC)CCCCCC)CC(O)C(=O)NCCNC(=O)C(CCCCCC)CCCCCC (stereo not drawn) [Compound L0381] | 1.90E+07 | – | – | – | – | – | – | – | – | 1.57E+08 | 86.51% | 8.07E+07 | 0.46% | 4.31E+05 | 13.03% | 1.22E+07 | –
CCCCCCCC(CCCCCCC)OC(=O)CCCNC(=O)C(O)CN(CCCN(C)CCCN(CC(O)C(=O)NCCCC(=O)OC(CCCCCCC)CCCCCCC)CC(O)C(=O)NCCCC(=O)OC(CCCCCCC)CCCCCCC)CC(O)C(=O)NCCCC(=O)OC(CCCCCCC)CCCCCCC (stereo not drawn) [Compound L0382] | – | – | 35.27% | 5.75E+04 | 7.39% | 1.20E+04 | 4.83E+07 | 57.34% | 9.34E+04 | 1.60E+09 | 67.69% | 3.25E+08 | 9.82% | 4.72E+07 | 22.49% | 1.08E+08 | –
CCCCCCCC(CCCCCCC)OC(=O)CCCNC(=O)C(O)CN(CCN(C)CCN(CC(O)C(=O)NCCCC(=O)OC(CCCCCCC)CCCCCCC)CC(O)C(=O)NCCCC(=O)OC(CCCCCCC)CCCCCCC)CC(O)C(=O)NCCCC(=O)OC(CCCCCCC)CCCCCCC (stereo not drawn) [Compound L0383] | – | – | 29.05% | 1.91E+05 | 10.07% | 6.63E+04 | 1.78E+08 | 60.88% | 4.01E+05 | 2.00E+09 | 68.14% | 4.62E+08 | 2.23% | 1.52E+07 | 29.63% | 2.01E+08 | strong targeting specificity to deliver to spleen
CCCCCCCC(CCCCCCC)OC(=O)CCCNC(=O)C(O)CN(CCCN(CC(O)C(=O)NCCCC(=O)OC(CCCCCCC)CCCCCCC)CC(O)C(=O)NCCCC(=O)OC(CCCCCCC)CCCCCCC)CCCN(CC(O)C(=O)NCCCC(=O)OC(CCCCCCC)CCCCCCC)CC(O)C(=O)NCCCC(=O)OC(CCCCCCC)CCCCCCC (stereo not drawn) [Compound L0384] | – | – | 29.97% | 2.35E+05 | 13.02% | 1.02E+05 | 2.75E+07 | 57.01% | 4.47E+05 | 4.54E+08 | 54.57% | 1.50E+08 | 0.39% | 1.09E+06 | 45.03% | 1.24E+08 | strong targeting specificity to deliver to spleen
CCCCCCCCCCOC(=O)CCCNC(=O)C(O)CN(CCCN(C)CCCN(CC(O)C(=O)NCCCC(=O)OCCCCCCCCCC)CC(O)C(=O)NCCCC(=O)OCCCCCCCCCC)CC(O)C(=O)NCCCC(=O)OCCCCCCCCCC (stereo not drawn) [Compound L0385] | 1.14E+06 | – | – | – | – | – | – | – | – | 8.17E+07 | 0.90% | 2.51E+06 | 98.40% | 2.74E+08 | 0.70% | 1.94E+06 | more selective towards the lung
CCCCCCCCCCOC(=O)CCCNC(=O)C(O)CN(CCN(C)CCN(CC(O)C(=O)NCCCC(=O)OCCCCCCCCCC)CC(O)C(=O)NCCCC(=O)OCCCCCCCCCC)CC(O)C(=O)NCCCC(=O)OCCCCCCCCCC (stereo not drawn) [Compound L0386] | 1.91E+05 | – | – | – | – | – | – | – | – | 6.49E+07 | 1.32% | 2.54E+06 | 96.51% | 1.86E+08 | 2.17% | 4.18E+06 | more selective towards the lung
CCCCCCCCCCOC(=O)CCCNC(=O)C(O)CN(CCCN(CC(O)C(=O)NCCCC(=O)OCCCCCCCCCC)CC(O)C(=O)NCCCC(=O)OCCCCCCCCCC)CCCN(CC(O)C(=O)NCCCC(=O)OCCCCCCCCCC)CC(O)C(=O)NCCCC(=O)OCCCCCCCCCC (stereo not drawn) [Compound L0387] | 1.15E+05 | 5.23E+05 | – | – | – | – | – | – | – | – | – | – | – | – | – | – | –
CCCCCCCCCCCCNC(=O)C(CN(CCCN(C)CCCN(CC(OC(C)=O)C(=O)NCCCCCCCCCCCC)CC(OC(C)=O)C(=O)NCCCCCCCCCCCC)CC(OC(C)=O)C(=O)NCCCCCCCCCCCC)OC(C)=O (stereo not drawn) [Compound L0388] | 1.49E+07 | – | – | – | – | – | – | – | – | 1.49E+08 | 22.33% | 2.37E+07 | 1.64% | 1.74E+06 | 76.03% | 8.08E+07 | –
